Experimental data published in patent publication US20110263539A1, “SHIP 1 MODULATOR COMPOUNDS” (THE UNIVERSITY OF BRITISH COLUMBIA, priority 2006, published 2011).

Legend:
[1] = test system: J774.1a macrophage cells; assay: Macrophage TNF-α production (Assay 2); type: cell-based; conditions: 10 μg/mL test compound, 100 ng/mL LPS, ELISA; further: key: a ‘+’ indicates a positive result for desired activity; a ‘−’ indicates a negative result for desired activity
Description: Assay 2) Macrophage TNF-α production. J774.1a macrophage cells were treated with 10 μg/mL of test compound dissolved in solvent (e.g. cyclodextran) for 40 minutes prior to the addition of 100 ng/mL LPS. Culture supernatants were collected after 2 hr and 5 hr for TNF-α determination by ELISA.

[2] = test system: J774.1a macrophage cells; assay: Macrophage TNF-α NO assay (Assay 3); type: cell-based; conditions: 10 μg/ml test compound, LPS, 24 hr, Griess reagent; further: key: a ‘+’ indicates a positive result for desired activity; a ‘−’ indicates a negative result for desired activity
Description: Assay 3) Macrophage TNF-α NO assay. J774.1a macrophage cells were treated with 10 μg/ml of test compound dissolved in solvent for 40 minutes prior to the addition of LPS. Culture supernatants were collected after 24 hr. for determination of NO concentration using the Griess reagent.

[3] = test system: neutrophil myeloperoxidase (MPO) activity; assay: Mouse acute cutaneous anaphylaxis model (Assay 5); type: in vivo, CD1 mice; conditions: topical on ear, DNFB
Description: Assay 5) Mouse acute cutaneous anaphylaxis model. 6-8 week old CD1 mice
(§1) (University of British Columbia Animal Facility, Vancouver, BC) were sensitized to the hapten DNP by cutaneous application of 25 μL of 0.5% dinitrofluorobenzene (DNFB) (Sigma, Oakville, Ont) in acetone to the shaved abdomen of mice for two consecutive days. 24 hrs later, test substances (dissolved in 10 μL of 1:2 DMSO:MeOH) were painted on the right ear while the left ear received vehicle control. 30 min after drug application, DNFB was applied to both ears to induce mast cell degranulation. A 6 mm punch was taken from the ear and immediately frozen on dry ice for subsequent determination of neutrophil myeloperoxidase (MPO) activity.
as §1, with “Mouse acute cutaneous anaphylaxis model. 6-8 week old CD1 mice (University” for “(University”, “activity. Compound 100's ability to inhibit cutaneous anaphylaxis was assessed.” for “activity.”
Anaphylactic or allergic responses are mediated by allergen-induced degranulation of pre-sensitized mast cells. The mouse ear edema/cutaneous anaphylaxis model involves pre-sensitization of mice with the haptenizing agent dinitrofluorobenzene (DNFB). One week later the allergic reaction is elicited by painting DNFB onto the ears of the mice. The efficacy of potential anti-inflammatory compounds is tested by topical application of the test substance to one ear and comparing the resulting ear edema or inflammation of the two ears.

[4] = test system: MM cell lines; assay: In vitro Multiple Myeloma (MM) assay (Assay 7); type: cell-based; further: key: a ‘+’ indicates a positive result for desired activity; a ‘−’ indicates a negative result for desired activity
Description: Assay 7) In vitro Multiple Myeloma (MM) assay. The ability of SHIP activators to reduce tumor cell survival was assessed in MM cell lines treated with the test compound. The lines OPM1, OPM2, MM.1S and RPMI 8226 were plated at a density of 1×10^5 cells/mL in 200 μL of medium with various concentrations of the test compound, and viable cell numbers were determined on day 3 and day 5 by trypan blue exclusion. The lines RPMI 8226 and U266 were plated at a density of 1×10^6 cells/mL in 250 μL of medium with various concentrations of the test compound. At day 4, the medium of each culture was replaced by fresh medium containing the same concentration of test compound. At day 7, the viable cell number of each culture was determined by trypan blue exclusion.
MM cell lines were cultured in 96 well plates seeded with 3×10^4 cells suspended in 200 μL of medium along with various concentrations of test compound (and associated cyclodextran vehicle control), with LY294002 serving as a positive control in the experiments. After 24-48 hrs of culture, […] of [3H]-thymidine (GE Healthcare, Baie D'Urfe, Canada) being added for the final 8 hours. Cells were harvested and DNA associated radioactivity was measured via liquid scintillation counting using a Wallac Microbeta counter (Perkin-Elmer; Boston, Mass.).
The ability of SHIP activators to reduce tumor cell survival was assessed in multiple myeloma (MM) cell lines treated with Compound 100 or AQX-016A. The lines OPM1, OPM2, MM.1S and RPMI 8226 were plated at a density of 1×10^5 cells/mL in 200 μL of medium with various concentrations of Compound 100, and viable cell numbers were determined on day 3 and day 5 by trypan blue exclusion. The lines RPMI 8226 and U266 were plated at a density of 1×10^6 cells/mL in 250 μL of medium with various concentrations of AQX-016A. At day 4, the medium of each culture was replaced by fresh medium containing the same concentration of AQX-016A. At day 7, the viable cell number of each culture was determined by trypan blue exclusion. Experiments were performed in triplicate.
Proliferation (DNA synthesis) assays. Proliferation was measured by measuring incorporation of [^3H]-thymidine into cells. MM cell lines were cultured in 96 well plates seeded with 3×10^4 cells suspended in 200 μL, of medium along with various concentrations of Compound 100 or AQX-016A (and associated cyclodextran vehicle control), with LY294002 serving as a positive control in the indicated experiments. After 24-48 hrs of culture, 1 μCi of [^3H]-thymidine (GE Healthcare, Baie D'Urfe, Canada) being added for the final 8 hours. Plates were frozen, which also aided in cell lysis, to terminate the experiments. Cells were then harvested onto glass fibre filters using an automatic cell harvester (TomTech; Orange, Conn.) and DNA associated radioactivity was measured via liquid scintillation counting using a Wallac Microbeta counter (Perkin-Elmer; Boston, Mass.). Wells were set up in triplicate and data is expressed as mean+/−SEM.

[5] = test system: luciferase expressing OPM2 cells; assay: In vivo Multiple Myeloma (MM) assay (Assay 8); design: species or system Mice; conditions: 50 mg/kg every 3 days, subcutaneous oil depot
Description: Assay 8) In vivo Multiple Myeloma (MM) assay. Mice were inoculated with at two sites each with 3×10^6 luciferase expressing OPM2 cells suspended in 50 μL of growth medium and 50 μL of Matrigel basement membrane matrix (Becton Dickenson; Bedford, Mass.). Tumors were injected subcutaneously in the upper and lower flanks of the mice and allowed to establish for 2 weeks. After 2 weeks, a test compound or control vehicle was administered in a subcutaneous oil depot at a dose of 50 mg/kg every 3 days.
Tumors were measured using bioluminescence imaging on the Xenogen IVIS 200. Mice received intra-peritoneal injections of 200 μL of D-luciferin at 3.75 mg/mL in sterile PBS. Mice were then anesthetized with isofluorane and imaged 15 minutes post-injection of luciferin. Quantification of tumor size was performed using the Living Image™ software.
MM Xenograft murine model. Mice were inoculated with at two sites each with 3×10^6 luciferase expressing OPM2 cells suspended in 50 μL of growth medium and 50 μL of Matrigel basement membrane matrix (Becton Dickenson; Bedford, Mass.). Tumors were injected subcutaneously in the upper and lower flanks of the mice and allowed to establish for 2 weeks. […]
Tumors were measured using bioluminescence imaging on the Xenogen IVIS 200. […] Quantification of tumor size was performed using the Living Image™ software. […]

[6] = test system: LNCaP cells; assay: PKB activation in LNCaP cells; type: cell-based, human; conditions: doses up to 60 μM
Description: The ability of AQX-016A to inhibit activation of PIP3-dependent downstream signalling proteins in SHIP^+/+ vs SHIP^−/− cells was assessed. LPS stimulation of macrophages results in PKB phosphorylation. […] Similar protein loading was confirmed by reblotting with either antibodies to PKB or Grb2. […] Thus, AQX-016A inhibits PIP3-regulated intracellular signal transduction events in SHIP expressing hematopoietic cells, but not in SHIP-deficient hematopoietic or non-hematopoietic cells.

[7] = Initial toxicology studies; type: in vivo; conditions: data not shown
From the text: A novel paradigm for inhibiting PI3K signaling through activation of the phosphatases that negatively regulate this pathway is provided. SHIP is a particularly good target for immune/hematopoietic disorders because of its restricted expression to hematopoietic cells. Because the relative activity of phosphatases present in a cell will influence the efficacy of kinase inhibitors, as discussed by Knight and Shokat, SHIP agonists may also be used to potentiate the activation of PI3K inhibitors and promote tissue targeting of PI3K inhibitors to the ematopoietic/immune cell compartment.

Compound: Cc1cc(O)c(O)c2c1[C@]1(C)CCC3C(C)(C)CCC[C@]3(C)[C@H]1C2 (stereo partly shown) [AQX-016A]
- Assay Number 2: Macrophage TNF-α production [1]: +
- Assay Number 3: Macrophage NO [2]: +
- Assay Number 5: Mouse acute cutaneous anaphylaxis model [3]: +
- Assay Number 7: In vitro Multiple Myeloma (MM) assay [4]: +
- Assay Number 8: In vivo Multiple Myeloma (MM) assay [5]: +
- PKB phosphorylation [6]: no effect
- peripheral blood cell counts or bone marrow progenitor numbers [7]: do not significantly affect
